Patent US20220396565A1 (Hoffmann-La Roche Inc., priority 2020, published 2022)
Counter-ions that a name gives are not always drawn. Like-named read-outs stand apart in the source and are kept apart here.

System: Acinetobacter baumannii ATCC17961
Test: Antimicrobial susceptibility testing: 90% growth inhibitory concentration (IC90) determination, Iso-Sensitest broth
Type: cell-based
Settings: Acinetobacter baumannii
In short: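 Growth at OD600 was monitored every 20 min for 16 h at 35±2 °C, with bacteria inoculated at ~5×10^(5) CFU/ml into Iso-Sensitest medium. Compounds were tested as 10-point twofold dilutions (e.g. 10–0.02 μM final). The 90% inhibitory concentration comes from the log-phase growth.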

[1] = ATCC17961, 90% growth inhibitory concentration, Acinetobacter baumannii ATCC17961, Iso-Sensitest broth, read-out: ATCC 17961 IC90

Compound | IC90 [1] [nM] | IC90 (ATCC17961, read-out: ATCC 17961 IC90) [nM]
Cn1c(-c2ccc(OC(F)F)c(F)c2F)cnc1C(=O)Nc1ccc(C(=O)N2CCN(C(=O)C3CCN(C(=O)C4(O)CCNCC4)CC3)CC2)c(Cl)c1 [Example 179, N-[3-chloro-4-[4-[1-(4-hydroxypiperidine-4-carbonyl)piperidine-4-carbonyl]piperazine-1-carbonyl]phenyl]-5-[4-(difluoromethoxy)-2,3-difluoro-phenyl]-1-methyl-imidazole-2-carboxamide formate] | 50 | 
COc1ccc(-c2cnc(C(=O)Nc3ccc(C(=O)N4CC5(CNC5)C4)c(Cl)c3)n2C)c(F)c1F [Example 42, N-[3-chloro-4-(2,6-diazaspiro[3.3]heptane-2-carbonyl)phenyl]-5-(2,3-difluoro-4-methoxy-phenyl)-1-methyl-imidazole-2-carboxamide trifluoroacetate] | 170 | 
Cn1c(-c2ccc(OC(F)F)c(F)c2Cl)cnc1C(=O)Nc1ccc(C(=O)N2CCN(C(=O)CC3(O)CCNCC3)CC2)c(Cl)c1 [Example 172, 5-[2-chloro-4-(difluoromethoxy)-3-fluoro-phenyl]-N-[3-chloro-4-[4-[2-(4-hydroxy-4-piperidyl)acetyl]piperazine-1-carbonyl]phenyl]-1-methyl-imidazole-2-carboxamide formate] | 50 | 
COc1ccc(-c2cnc(C(=O)Nc3ccc(C(=O)N4CCN(C(=O)CCCCN)CC4)c(Cl)c3)n2C)c(F)c1F [Example 124, N-[4-[4-(5-aminopentanoyl)piperazine-1-carbonyl]-3-chloro-phenyl]-5-(2,3-difluoro-4-methoxy-phenyl)-1-methyl-imidazole-2-carboxamide formate] | 40 | 
COc1ccc(-c2cnc(C(=O)Nc3ccc(C(=O)N4CCC(C(=O)NCC5CCNCC5)CC4)c(Cl)c3)n2C)c(F)c1F [Example 35, 1-[2-chloro-4-[[5-(2,3-difluoro-4-methoxy-phenyl)-1-methyl-imidazole-2-carbonyl]amino]benzoyl]-N-(4-piperidylmethyl)piperidine-4-carboxamide formate] | 60 | 
COc1ccc(-c2cnc(C(=O)Nc3ccc(C(=O)N4CCN(C(=O)[C@H]5CC[C@@H](N)C5)CC4)c(Cl)c3)n2C)c(F)c1F [Example 108, N-[4-[4-[(1S,3R)-3-aminocyclopentane-carbonyl]piperazine-1-carbonyl]-3-chloro-phenyl]-5-(2,3-difluoro-4-methoxy-phenyl)-1-methyl-imidazole-2-carboxamide; formate] | 40 | 
COc1ccc(-c2cnc(C(=O)Nc3ccc(C(=O)N4CCN(C(=O)CCC#N)CC4)c(Cl)c3)n2C)c(F)c1F [Example 134, N-[3-chloro-4-[4-(3-cyanopropanoyl)piperazine-1-carbonyl]phenyl]-5-(2,3-difluoro-4-methoxy-phenyl)-1-methyl-imidazole-2-carboxamide] | 100 | 
COc1ccc(-c2cnc(C(=O)Nc3ccc(C(=O)N4CCN(C(=O)C[C@H]5CCCN5)CC4)c(Cl)c3)n2C)c(F)c1F [Example 152, N-[3-chloro-4-[4-[2-[(2R)-pyrrolidin-2-yl]acetyl]piperazine-1-carbonyl]phenyl]-5-(2,3-difluoro-4-methoxy-phenyl)-1-methyl-imidazole-2-carboxamide formate] | 50 | 
CN(C)CCN1CCN(C(=O)c2ccc(NC(=O)c3ncc(-c4ccc(Oc5ccccn5)c(F)c4F)n3C)cc2Cl)CC1 [Example 271, N-[3-chloro-4-[4-[2-(dimethylamino)ethyl]piperazine-1-carbonyl]phenyl]-5-[2,3-difluoro-4-(2-pyridyloxy)phenyl]-1-methyl-imidazole-2-carboxamide trifluoroacetate] | 640 | 
COc1ccc(-c2cnc(C(=O)Nc3ccc(C(=O)N4CCC(C(=O)N[C@@H]5CNC[C@H]5O)CC4)c(Cl)c3)n2C)c(F)c1F [Example 60, 1-[2-chloro-4-[[5-(2,3-difluoro-4-methoxy-phenyl)-1-methyl-imidazole-2-carbonyl]amino]benzoyl]-N-[(3R,4R)-4-hydroxypyrrolidin-3-yl]piperidine-4-carboxamide formate] | 50 | 
CN(C)CC(=O)N1CCN(C(=O)c2ccc(NC(=O)c3ncc(-c4ccc(OC(F)F)c(F)c4)n3C)cc2Cl)CC1 [Example 176, N-[3-chloro-4-[4-[2-(dimethylamino)acetyl]piperazine-1-carbonyl]phenyl]-5-[4-(difluoromethoxy)-3-fluoro-phenyl]-1-methyl-imidazole-2-carboxamide formate] | 80 | 
CNCCNC(=O)C1CCN(C(=O)c2ccc(NC(=O)c3ncc(-c4ccc(OCC#N)c(F)c4F)n3C)cc2Cl)CC1 [Example 82, 1-(2-chloro-4-(5-(4-(cyanomethoxy)-2,3-difluorophenyl)-1-methyl-1H-imidazole-2-carboxamido)benzoyl)-N-(2-(methylamino)ethyl) piperidine-4-carboxamide formate] |  | 70
Cn1c(-c2ccc(OCF)c(F)c2F)cnc1C(=O)Nc1ccc(C(=O)N2CCN(C(=O)[C@@H]3C[C@@H](O)CN3)CC2)c(Cl)c1 [Example 221, N-(3-chloro-4-(4-((2S,4R)-4-hydroxypyrrolidine-2-carbonyl)piperazine-1-carbonyl)phenyl)-5-(2,3-difluoro-4-(fluoromethoxy)phenyl)-1-methyl-1H-imidazole-2-carboxamide formate] | 50 | 
COc1ccc(-c2cnc(C(=O)Nc3ccc(C(=O)N4CCC(S(=O)(=O)N5CCNCC5)CC4)c(Cl)c3)n2C)c(F)c1F [Example 21, N-(3-chloro-4-(4-(piperazin-1-ylsulfonyl)piperidine-1-carbonyl)phenyl)-5-(2,3-difluoro-4-methoxyphenyl)-1-methyl-1H-imidazole-2-carboxamide formate] | 100 | 
Cc1c(-c2cnc(C(=O)Nc3ccc(C(=O)N4CCN(C(=O)C[C@@H]5CCNC5)CC4)c(Cl)c3)n2C)ccc(OCF)c1F [Example 259, N-[3-chloro-4-[4-[2-[(3S)-pyrrolidin-3-yl]acetyl]piperazine-1-carbonyl]phenyl]-5-[3-fluoro-4-(fluoromethoxy)-2-methyl-phenyl]-1-methyl-imidazole-2-carboxamide formate] | 50 | 
Cn1c(-c2ccc(OCF)cc2F)cnc1C(=O)Nc1ccc(C(=O)N2CCN(C(=O)N3CC[C@@H](N)C3)CC2)c(Cl)c1 [Example 26, (R)-N-(4-(4-(3-aminopyrrolidine-1-carbonyl)piperazine-1-carbonyl)-3-chlorophenyl)-5-(2-fluoro-4-(fluoromethoxy)phenyl)-1-methyl-1H-imidazole-2-carboxamide formate] | 30 | 
CN(C)CCN1CCN(C(=O)c2ccc(NC(=O)c3ncc(-c4ccc(Oc5ccncc5)c(F)c4F)n3C)cc2Cl)CC1 [Example 272, N-[3-chloro-4-[4-[2-(dimethylamino)ethyl]piperazine-1-carbonyl]phenyl]-5-[2,3-difluoro-4-(4-pyridyloxy)phenyl]-1-methyl-imidazole-2-carboxamide trifluoroacetate] | 880 | 
COc1ccc(-c2cnc(C(=O)Nc3ccc(C(=O)N4CCN(C(=O)CCOCCC(N)=O)CC4)c(Cl)c3)n2C)c(F)c1F [Example 279, N-(4-(4-(3-(3-Amino-3-oxopropoxy)propanoyl)piperazine-1-carbonyl)-3-chlorophenyl)-5-(2,3-difluoro-4-methoxyphenyl)-1-methyl-1H-imidazole-2-carboxamide] | 150 | 
